Results: PubChem BioAssay AID192 (DTP/NCI, 2004)
Where “and” joins values, the source holds several entries; their conditions need not be identical. Equal values may be shown once. Inconclusive results and toxic doses are left out.

Test system: BDF1 mice, B16 melanoma ip, median survival T/C
Assay: NCI In Vivo Anticancer Drug Screen. Data for tumor model B16 Melanoma (intraperitoneal) in B6D2F1 (BDF1) mice
Conditions: endpoint: median survival time, higher = longer survival
Procedure, shortened: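 Antitumor activity is assessed in mice bearing a transplanted tumor, with survival or tumor size compared against vehicle-dosed controls and expressed as T/C.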

[1] = dose: 100.0 mg/kg/injection, schedule: Q01DX009 (ip), vehicle: Klucel (hydroxypropylcellulose) (HPC)
[2] = dose: 25.0 mg/kg/injection, schedule: Q01DX009 (ip), vehicle: saline with Tween-80
[3] = dose: 50.0 mg/kg/injection, schedule: Q01DX009 (ip), vehicle: saline with Tween-80
[4] = dose: 100.0 mg/kg/injection, schedule: Q01DX009 (ip), vehicle: saline with Tween-80

For `CC(CN1CC(=O)NC(=O)C1)N1CC(=O)NC(=O)C1` (stereo not drawn), the T/C (dose: 3.75 mg/kg/injection, schedule: Q01DX009 (ip), vehicle: alkali diluted with saline) was 99 % of control, the T/C (dose: 3.75 mg/kg/injection, schedule: Q01DX009 (ip), vehicle: saline sonified) was 97 % of control and the T/C (dose: 3.75 mg/kg/injection, schedule: Q01DX009 (ip), vehicle: saline) was 102 % of control. The T/C (dose: 3.75 mg/kg/injection, schedule: Q04DX004 (ip), vehicle: saline) was 100 % of control, the T/C (dose: 4.0 mg/kg/injection, schedule: Q01DX009 (ip), vehicle: saline with Tween-80) was 114 % of control and the T/C (dose: 4.0 mg/kg/injection, schedule: Q01DX009 (ip), vehicle: saline) was 115 % of control. For the same compound, the T/C (dose: 7.5 mg/kg/injection, schedule: Q01DX009 (ip), vehicle: alkali diluted with saline) was 105 % of control, the T/C (dose: 7.5 mg/kg/injection, schedule: Q01DX009 (ip), vehicle: saline sonified) was 100 % of control and the T/C (dose: 7.5 mg/kg/injection, schedule: Q01DX009 (ip), vehicle: saline) was 104 % of control. The T/C (dose: 7.5 mg/kg/injection, schedule: Q04DX004 (ip), vehicle: saline) was 90 % of control, the T/C (dose: 8.0 mg/kg/injection, schedule: Q01DX009 (ip), vehicle: saline with Tween-80) was 105 % of control and 112 % of control and 118 % of control and the T/C (dose: 8.0 mg/kg/injection, schedule: Q01DX009 (ip), vehicle: saline) was 123 % of control. For the same compound, the T/C (dose: 15.0 mg/kg/injection, schedule: Q01DX009 (ip), vehicle: alkali diluted with saline) was 110 % of control, the T/C (dose: 15.0 mg/kg/injection, schedule: Q01DX009 (ip), vehicle: saline sonified) was 109 % of control and the T/C (dose: 15.0 mg/kg/injection, schedule: Q01DX009 (ip), vehicle: saline with Tween-80) was 110 % of control. For the same compound, the T/C (dose: 15.0 mg/kg/injection, schedule: Q01DX009 (ip), vehicle: saline) was 114 % of control, the T/C (dose: 15.0 mg/kg/injection, schedule: Q04DX004 (ip), vehicle: saline) was 88 % of control and the T/C (dose: 16.0 mg/kg/injection, schedule: Q01DX009 (ip), vehicle: saline with Tween-80) was 121 % of control and 123 % of control. For the same compound, the T/C (dose: 25.0 mg/kg/injection, schedule: Q04DX003 (ip), vehicle: Klucel (hydroxypropylcellulose) (HPC)) was 94 % of control and 97 % of control, the T/C (dose: 30.0 mg/kg/injection, schedule: Q01DX009 (ip), vehicle: alkali diluted with saline) was 119 % of control and the T/C (dose: 30.0 mg/kg/injection, schedule: Q01DX009 (ip), vehicle: saline sonified) was 119 % of control. The T/C (dose: 30.0 mg/kg/injection, schedule: Q01DX009 (ip), vehicle: saline with Tween-80) was 113 % of control, the T/C (dose: 30.0 mg/kg/injection, schedule: Q01DX009 (ip), vehicle: saline) was 121 % of control and the T/C (dose: 30.0 mg/kg/injection, schedule: Q01DX009 (oral), vehicle: saline) was 95 % of control. For the same compound, the T/C (dose: 30.0 mg/kg/injection, schedule: Q04DX004 (ip), vehicle: saline) was 90 % of control, the T/C (dose: 32.0 mg/kg/injection, schedule: Q01DX009 (ip), vehicle: Klucel (hydroxypropylcellulose) (HPC)) was 115 % of control and the T/C (dose: 32.0 mg/kg/injection, schedule: Q01DX009 (ip), vehicle: saline with Tween-80) was 122 % of control. The T/C (dose: 32.0 mg/kg/injection, schedule: Q04DX003 (ip), vehicle: saline with Tween-80) was 109 % of control and 110 % of control, the T/C (dose: 50.0 mg/kg/injection, schedule: Q04DX003 (ip), vehicle: Klucel (hydroxypropylcellulose) (HPC)) was 108 % of control and 110 % of control and the T/C (dose: 60.0 mg/kg/injection, schedule: Q01DX009 (ip), vehicle: saline with Tween-80) was 118 % of control. For the same compound, the T/C (dose: 60.0 mg/kg/injection, schedule: Q04DX004 (ip), vehicle: saline) was 111 % of control, the T/C (dose: 64.0 mg/kg/injection, schedule: Q01DX009 (ip), vehicle: Klucel (hydroxypropylcellulose) (HPC)) was 120 % of control and the T/C (dose: 64.0 mg/kg/injection, schedule: Q04DX003 (ip), vehicle: saline with Tween-80) was 108 % of control and 115 % of control. For the same compound, the T/C (dose: 64.0 mg/kg/injection, schedule: Q04DX003 (ip), vehicle: saline) was 115 % of control, the T/C (dose: 100.0 mg/kg/injection, schedule: Q04DX003 (ip), vehicle: Klucel (hydroxypropylcellulose) (HPC)) was 108 % of control and 112 % of control and the T/C (dose: 120.0 mg/kg/injection, schedule: Q01DX009 (ip), vehicle: saline with Tween-80) was 116 % of control. The T/C (dose: 128.0 mg/kg/injection, schedule: Q01DX009 (ip), vehicle: Klucel (hydroxypropylcellulose) (HPC)) was 120 % of control, the T/C (dose: 128.0 mg/kg/injection, schedule: Q04DX003 (ip), vehicle: saline with Tween-80) was 121 % of control and the T/C (dose: 128.0 mg/kg/injection, schedule: Q04DX003 (ip), vehicle: saline) was 121 % of control. For the same compound, the T/C (dose: 200.0 mg/kg/injection, schedule: Q04DX003 (ip), vehicle: Klucel (hydroxypropylcellulose) (HPC)) was 112 % of control, the T/C (dose: 400.0 mg/kg/injection, schedule: Q04DX003 (ip), vehicle: Klucel (hydroxypropylcellulose) (HPC)) was 108 % of control and the T/C (dose: 800.0 mg/kg/injection, schedule: Q04DX003 (ip), vehicle: Klucel (hydroxypropylcellulose) (HPC)) was 112 % of control.

With `CC(O)(C(=O)O)c1ccccc1` (stereo not drawn) (tested in a mixture with another compound) the T/C [1] was 94 % of control, the T/C (dose: 200.0 mg/kg/injection, schedule: Q01DX009 (ip), vehicle: Klucel (hydroxypropylcellulose) (HPC)) was 105 % of control and the T/C (dose: 400.0 mg/kg/injection, schedule: Q01DX009 (ip), vehicle: Klucel (hydroxypropylcellulose) (HPC)) was 97 % of control.

`CCCCCC#CC(=O)OC` was tested, and the T/C (dose: 12.5 mg/kg/injection, schedule: Q01DX009 (ip), vehicle: saline with Tween-80) was 102 % of control, the T/C [2] was 86 % of control and the T/C [3] was 86 % of control.

In the case of `C[n+]1cccc(NC(=O)c2ccc(NC(=O)C34CCC(C(=O)Nc5ccc(C(=O)Nc6ccc[n+](C)c6)cc5)(CC3)CC4)cc2)c1`, the T/C (dose: 10.0 mg/kg/injection, schedule: Q01DX009 (ip), vehicle: saline with Tween-80) is reported as 154 % of control.

With `CCCCC(SC(CC)(C(C)=O)c1ccccc1)C(N)=O` (stereo not drawn) the T/C [3] was 89 % of control, the T/C [4] was 108 % of control and the T/C (dose: 200.0 mg/kg/injection, schedule: Q01DX009 (ip), vehicle: saline with Tween-80) was 87 % of control. The T/C (dose: 400.0 mg/kg/injection, schedule: Q01DX009 (ip), vehicle: saline with Tween-80) was 92 % of control.

In the case of `CC1CCC2(OC1)OC1CC3C4CCC5CC(O)CCC5(C)C4CCC3(C)C1C2C` (stereo not drawn), the T/C (dose: 10.0 mg/kg/injection, schedule: Q01DX009 (ip), vehicle: Klucel (hydroxypropylcellulose) (HPC)) is reported as 99 % of control, the T/C (dose: 20.0 mg/kg/injection, schedule: Q01DX009 (ip), vehicle: Klucel (hydroxypropylcellulose) (HPC)) is reported as 97 % of control and the T/C (dose: 40.0 mg/kg/injection, schedule: Q01DX009 (ip), vehicle: Klucel (hydroxypropylcellulose) (HPC)) is reported as 95 % of control.

With `OCCOc1c(Cl)c(Cl)c(Cl)c(Cl)c1Cl` the T/C [2] was 100 % of control, the T/C [3] was 92 % of control and the T/C [4] was 97 % of control.

`O=NN(CCCl)C(=O)NC1CCCCC1` was tested, and the T/C (dose: 4.0 mg/kg/injection, schedule: Q01DX001 (ip), vehicle: Klucel (hydroxypropylcellulose) (HPC)) was 102 % of control and 121 % of control, the T/C (dose: 4.0 mg/kg/injection, schedule: Q01DX001 (ip), vehicle: saline) was 107 % of control and the T/C (dose: 7.5 mg/kg/injection, schedule: Q01DX001 (ip), vehicle: other) was 107 % of control. For the same compound, the T/C (dose: 8.0 mg/kg/injection, schedule: Q01DX001 (ip), vehicle: Klucel (hydroxypropylcellulose) (HPC)) was 102 % of control, the T/C (dose: 12.5 mg/kg/injection, schedule: Q01DX010 (ip), vehicle: saline) was 115 % of control and the T/C (dose: 25.0 mg/kg/injection, schedule: Q01DX010 (ip), vehicle: saline) was 110 % of control. The T/C (dose: 30.0 mg/kg/injection, schedule: Q01DX001 (ip), vehicle: other) was 198 % of control, the T/C (dose: 32.0 mg/kg/injection, schedule: Q01DX001 (ip), vehicle: Klucel (hydroxypropylcellulose) (HPC)) was 182 % of control and 312 % of control and the T/C (dose: 50.0 mg/kg/injection, schedule: Q01DX010 (ip), vehicle: saline) was 113 % of control. The T/C (dose: 100.0 mg/kg/injection, schedule: Q01DX010 (ip), vehicle: saline) was 102 % of control.

For `O=C(/C(=C\c1ccccc1)CBr)c1ccccc1`, the T/C (dose: 0.12 mg/kg/injection, schedule: Q01DX009 (ip), vehicle: Klucel (hydroxypropylcellulose) (HPC)) was 101 % of control, the T/C (dose: 0.25 mg/kg/injection, schedule: Q01DX009 (ip), vehicle: Klucel (hydroxypropylcellulose) (HPC)) was 88 % of control and the T/C (dose: 0.5 mg/kg/injection, schedule: Q01DX009 (ip), vehicle: Klucel (hydroxypropylcellulose) (HPC)) was 88 % of control.

In the case of `Cc1nn(CCO)c(C)c1N=[N+]([O-])c1c(C)nn(CCO)c1C`, the T/C (dose: 15.0 mg/kg/injection, schedule: Q01DX011 (ip), vehicle: saline with Tween-80) is reported as 88 % of control.

In the case of `CC(=O)Nc1ccc(Cl)c(Cl)c1`, the T/C (dose: 50.0 mg/kg/injection, schedule: Q01DX009 (ip), vehicle: Klucel (hydroxypropylcellulose) (HPC)) is reported as 116 % of control and the T/C [1] is reported as 121 % of control.

For `O=C(CC(NC(=O)OCc1ccccc1)c1nn[nH]n1)OCc1ccccc1` (stereo not drawn), the T/C (dose: 66.0 mg/kg/injection, schedule: Q01DX009 (ip), vehicle: saline with Tween-80) was 99 % of control, the T/C [4] was 107 % of control and the T/C (dose: 150.0 mg/kg/injection, schedule: Q01DX009 (ip), vehicle: saline with Tween-80) was 100 % of control.
